Experimental data from US10410851B2, “Matrix-assisted laser desorption mass spectrometry of high molecular weight polyoxyethylene derivative” (NOF CORPORATION, priority 2015, dated 2019).

Assay: 1-octanol/water partition coefficient (logPow) of the matrix by the high-performance liquid chromatography method, OECD Test Guideline 117
Format: physicochemical
Conditions: HPLC method of OECD Test Guideline 117, matrix for MALDI mass spectrometry
Excerpt: The low polar matrix for MALDI mass spectrometry which can be used in the invention is a low polar matrix having a 1-octanol/water partition coefficient from 4.1 to 4.8 (more preferably from 4.3 to 4.8). The 1-octanol/water partition coefficient of the matrix is a numerical value measured by the high-performance liquid chromatography method described in OECD Test Guideline 117.

O=C(O)c1cc(O)ccc1O [2,5-dihydroxybenzoic acid]
chromatographic logP (1-octanol/water): 0.6

C/C(C=C(C#N)C#N)=C\c1ccc(C(C)(C)C)cc1 [Trans-2-[3-(4-tert-butylphenyl)-2-methyl-2-propenylidene]malononitrile]
1-octanol/water partition coefficient (logPow): 4.6

N#CC(=Cc1ccc(O)cc1)C(=O)O [α-cyano-4-hydroxycinnamic acid]
chromatographic logP: 0.9
